Literature values, collected in patent EP0640130B1, “CHIMERIC M[…] ANALOGUES AND METHODS OF USE THEREOF” (CREATIVE BIOMOLECULES, INC., priority 1992, dated 1993).

Biological target: 26-10 sFv (anti-digoxin single-chain Fv)

Compound: C[C@@H]1O[C@@H](O[C@H]2C[C@@H](O)[C@]3(CO)[C@H]4[C@H](O)C[C@]5(C)[C@@H](C6=CC(=O)OC6)CC[C@]5(O)[C@@H]4CC[C@]3(O)C2)[C@H](O)[C@H](O)[C@H]1O [Ouabain]
- Ka for association with 26-10 sFv: about 10^7 M^-1
